In PubChem BioAssay AID1963871 (Molecular Pharmacology Branch, DTP, NCI, 2024):

System: KRAS-mutant PDC multicell tumor spheroid viability
Experiment: Anticancer human tumor 521955-158-R2-J5-PDC patient-derived pancreatic carcinoma cell line growth inhibition [KRAS2]
Settings: for viability, T/C: stronger effect = lower value
How it was run: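 KRAS-mutant tumor cells were grown as spheroids with HUVEC endothelial cells and human MSCs as stroma. Targeted agents were tested alone and with KRAS pathway inhibitors. Doses started at or near clinical Cmax, or 10 microM, descending half-log.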

[1] = curve of first compound, second compound 0.1 µM
[2] = curve of first compound, second compound 0.316 µM
[3] = curve of first compound, second compound 1 µM
[4] = curve of first compound, second compound 3.16 µM
[5] = curve of first compound, second compound 10 µM
[6] = second compound 0.1 µM, first compound 0.000316 µM
[7] = second compound 0.1 µM, first compound 0.001 µM
[8] = second compound 0.1 µM, first compound 0.00316 µM
[9] = second compound 0.1 µM, first compound 0.01 µM
[10] = second compound 0.1 µM, first compound 0.0316 µM
[11] = second compound 0.1 µM, first compound 0.1 µM
[12] = second compound 0.316 µM, first compound 0.000316 µM
[13] = second compound 0.316 µM, first compound 0.001 µM
[14] = second compound 0.316 µM, first compound 0.00316 µM
[15] = second compound 0.316 µM, first compound 0.01 µM
[16] = second compound 0.316 µM, first compound 0.0316 µM
[17] = second compound 0.316 µM, first compound 0.1 µM
[18] = second compound 1 µM, first compound 0.000316 µM
[19] = second compound 1 µM, first compound 0.001 µM
[20] = second compound 1 µM, first compound 0.00316 µM
[21] = second compound 1 µM, first compound 0.01 µM
[22] = second compound 1 µM, first compound 0.0316 µM
[23] = second compound 1 µM, first compound 0.1 µM
[24] = second compound 3.16 µM, first compound 0.000316 µM
[25] = second compound 3.16 µM, first compound 0.001 µM
[26] = second compound 3.16 µM, first compound 0.00316 µM
[27] = second compound 3.16 µM, first compound 0.01 µM
[28] = second compound 3.16 µM, first compound 0.0316 µM
[29] = second compound 3.16 µM, first compound 0.1 µM
[30] = second compound 10 µM, first compound 0.01 µM
[31] = second compound 10 µM, first compound 0.0316 µM
[32] = second compound 10 µM, first compound 0.1 µM
[33] = curve of first compound, second compound 0.0316 µM
[34] = second compound 0.0316 µM, first compound 0.00316 µM
[35] = second compound 0.0316 µM, first compound 0.01 µM
[36] = second compound 0.0316 µM, first compound 0.0316 µM
[37] = second compound 0.1 µM, first compound 0.316 µM
[38] = second compound 0.1 µM, first compound 1 µM
[39] = second compound 0.316 µM, first compound 0.316 µM
[40] = second compound 0.316 µM, first compound 1 µM
[41] = second compound 1 µM, first compound 0.316 µM
[42] = second compound 1 µM, first compound 1 µM
[43] = second compound 3.16 µM, first compound 0.316 µM
[44] = second compound 3.16 µM, first compound 1 µM
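Note: viability read after seven days of drug exposure.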

CN(C)C/C=C/C(=O)Nc1cc2c(Nc3ccc(F)c(Cl)c3)ncnc2cc1O[C@H]1CCOC1 + CC1OCC2(CCN(c3cnc(Sc4ccnc(N)c4Cl)c(N)n3)CC2)C1N
IC50 [1]: > 100 nM
IC50 [2]: > 100 nM
IC50 [3]: > 100 nM
IC50 [4]: < 0.316 nM
IC50 [5]: > 100 nM
viability, T/C [6]: 71.7%
viability, T/C [7]: 66.5%
viability, T/C [8]: 56.3%
viability, T/C [9]: 73.4%
viability, T/C [10]: 81.9%
viability, T/C [11]: 59.3%
viability, T/C [12]: 60.5%
viability, T/C [13]: 70.3%
viability, T/C [14]: 57.3%
viability, T/C [15]: 57.6%
viability, T/C [16]: 63.5%
viability, T/C [17]: 58.2%
viability, T/C [18]: 112%
viability, T/C [19]: 107%
viability, T/C [20]: 85.3%
viability, T/C [21]: 75.5%
viability, T/C [22]: 78.6%
viability, T/C [23]: 73.1%
viability, T/C [24]: 28%
viability, T/C [25]: 37%
viability, T/C [26]: 37.2%
viability, T/C [27]: 49%
viability, T/C [28]: 65.2%
viability, T/C [29]: 64.5%
viability, T/C (second compound 10 µM, first compound 0.000316 µM): 105%
viability, T/C (second compound 10 µM, first compound 0.001 µM): 90%
viability, T/C (second compound 10 µM, first compound 0.00316 µM): 85.8%
viability, T/C [30]: 79.9%
viability, T/C [31]: 80.8%
viability, T/C [32]: 80.3%

CCN1CCN(Cc2ccc(Nc3ncc(F)c(-c4cc(F)c5nc(C)n(C(C)C)c5c4)n3)nc2)CC1 + C=CC(=O)N1CCN(c2nc(OCC3CCCN3C)nc3c2CCN(c2cccc4cccc(C)c24)C3)CC1CC#N
IC50 [33]: > 1000 nM
IC50 [1]: > 1000 nM
IC50 [2]: > 1000 nM
IC50 [3]: > 1000 nM
IC50 [4]: < 3.16 nM
viability, T/C [34]: 93.5%
viability, T/C [35]: 107%
viability, T/C [36]: 91.8%
viability, T/C (second compound 0.0316 µM, first compound 0.1 µM): 85.9%
viability, T/C (second compound 0.0316 µM, first compound 0.316 µM): 110%
viability, T/C (second compound 0.0316 µM, first compound 1 µM): 83.6%
viability, T/C [8]: 102%
viability, T/C [9]: 94.2%
viability, T/C [10]: 87.5%
viability, T/C [11]: 95.8%
viability, T/C [37]: 106%
viability, T/C [38]: 84.8%
viability, T/C [14]: 85.3%
viability, T/C [15]: 106%
viability, T/C [16]: 90%
viability, T/C [17]: 72.3%
viability, T/C [39]: 104%
viability, T/C [40]: 90%
viability, T/C [20]: 89.3%
viability, T/C [21]: 78.3%
viability, T/C [22]: 80.6%
viability, T/C [23]: 82.5%
viability, T/C [41]: 84.6%
viability, T/C [42]: 81.9%
viability, T/C [26]: 19.2%
viability, T/C [27]: 19.5%
viability, T/C [28]: 16%
viability, T/C [29]: 11.1%
viability, T/C [43]: 4.58%
viability, T/C [44]: 0.34%

CC(=O)Nc1cccc(-n2c(=O)n(C3CC3)c(=O)c3c(Nc4ccc(I)cc4F)n(C)c(=O)c(C)c32)c1 + C=CC(=O)N1CCN(c2nc(OCC3CCCN3C)nc3c2CCN(c2cccc4cccc(C)c24)C3)CC1CC#N
IC50 [33]: 0.288 nM
IC50 [1]: 0.289 nM
IC50 [2]: 0.194 nM
IC50 [3]: 0.245 nM
IC50 [4]: < 0.1 nM
viability, T/C (second compound 0.0316 µM, first compound 0.0001 µM): 74.2%
viability, T/C (second compound 0.0316 µM, first compound 0.000316 µM): 44.9%
viability, T/C (second compound 0.0316 µM, first compound 0.001 µM): 34.6%
viability, T/C [34]: 26.5%
viability, T/C [35]: 20.1%
viability, T/C [36]: 15%
viability, T/C (second compound 0.1 µM, first compound 0.0001 µM): 61.9%
viability, T/C [6]: 51.6%
viability, T/C [7]: 30.3%
viability, T/C [8]: 23.8%
viability, T/C [9]: 18.4%
viability, T/C [10]: 10.5%
viability, T/C (second compound 0.316 µM, first compound 0.0001 µM): 57.5%
viability, T/C [12]: 46.9%
viability, T/C [13]: 27.5%
viability, T/C [14]: 21.7%
viability, T/C [15]: 18.9%
viability, T/C [16]: 8.09%
viability, T/C (second compound 1 µM, first compound 0.0001 µM): 69.7%
viability, T/C [18]: 43.6%
viability, T/C [19]: 27.8%
viability, T/C [20]: 24.3%
viability, T/C [21]: 18.2%
viability, T/C [22]: 9.76%
viability, T/C (second compound 3.16 µM, first compound 0.0001 µM): 3.74%
viability, T/C [24]: 5.29%
viability, T/C [25]: 0.31%
viability, T/C [26]: 1.92%
viability, T/C [27]: 0.67%
viability, T/C [28]: 0.24%

CC1(C)CCC(CN2CCN(c3ccc(C(=O)NS(=O)(=O)c4ccc(NCC5CCOCC5)c([N+](=O)[O-])c4)c(Oc4cnc5[nH]ccc5c4)c3)CC2)=C(c2ccc(Cl)cc2)C1
viability, T/C (compound 0.0316 µM): 99.7% [middle of 5 runs]
viability, T/C (compound 0.1 µM): 104% [middle of 5 runs]
viability, T/C (compound 0.316 µM): 105% [middle of 5 runs]
viability, T/C (compound 1 µM): 111% [middle of 5 runs]
IC50 (curve of compound): 6.08 µM [middle of 5 runs]

CN(C)C/C=C/C(=O)Nc1cc2c(Nc3ccc(F)c(Cl)c3)ncnc2cc1O[C@H]1CCOC1
viability, T/C (compound 0.000316 µM): 105% [middle of 5 runs]
viability, T/C (compound 0.001 µM): 98.6% [middle of 5 runs]
viability, T/C (compound 0.00316 µM): 96.5% [middle of 5 runs]
viability, T/C (compound 0.01 µM): 92.4% [middle of 5 runs]
viability, T/C (compound 0.0316 µM): 87.8% [middle of 5 runs]
IC50 (curve of compound): > 100 nM

CC(=O)OC12COC1CC(O)C1(C)C(=O)C(O)C3=C(C)C(OC(=O)C(O)C(NC(=O)OC(C)(C)C)c4ccccc4)CC(O)(C(OC(=O)c4ccccc4)C21)C3(C)C (configuration not stated) + CC1OCC2(CCN(c3cnc(Sc4ccnc(N)c4Cl)c(N)n3)CC2)C1N
IC50 [1]: < 10 nM
IC50 [2]: < 10 nM
IC50 [3]: < 10 nM
IC50 [4]: < 10 nM
IC50 [5]: < 10 nM
viability, T/C [9]: 26.4%
viability, T/C [10]: 15.3%
viability, T/C [11]: 11.9%
viability, T/C [37]: 14.5%
viability, T/C [38]: 16.1%
viability, T/C (second compound 0.1 µM, first compound 3.16 µM): 19.7%
viability, T/C [15]: 25.1%
viability, T/C [16]: 15.3%
viability, T/C [17]: 14%
viability, T/C [39]: 11.1%
viability, T/C [40]: 17.7%
viability, T/C (second compound 0.316 µM, first compound 3.16 µM): 18.2%
viability, T/C [21]: 19.7%
viability, T/C [22]: 13%
viability, T/C [23]: 11.2%
viability, T/C [41]: 13.1%
viability, T/C [42]: 15.6%
viability, T/C (second compound 1 µM, first compound 3.16 µM): 20.7%
viability, T/C [27]: 21.2%
viability, T/C [28]: 15.9%
viability, T/C [29]: 14.5%
viability, T/C [43]: 12.7%
viability, T/C [44]: 19.5%
viability, T/C (second compound 3.16 µM, first compound 3.16 µM): 23.2%
viability, T/C [30]: 22.1%
viability, T/C [31]: 15.9%
viability, T/C [32]: 15.2%
viability, T/C (second compound 10 µM, first compound 0.316 µM): 17.3%
viability, T/C (second compound 10 µM, first compound 1 µM): 14.6%
viability, T/C (second compound 10 µM, first compound 3.16 µM): 22.3%

COc1cc(OC)cc(N(CCNC(C)C)c2ccc3ncc(-c4cnn(C)c4)nc3c2)c1
viability, T/C (compound 0.0316 µM): 94.3% [middle of 5 runs]
viability, T/C (compound 0.1 µM): 99.1% [middle of 5 runs]
viability, T/C (compound 0.316 µM): 105% [middle of 5 runs]
viability, T/C (compound 1 µM): 123% [middle of 5 runs]
viability, T/C (compound 10 µM): 0.56% [middle of 5 runs]
IC50 (curve of compound): 6.06 µM [middle of 4 runs]
